Test results as given in patent US10918638B2, “Histone deacetylase 6 inhibition for enhancing T-cell function during anti-tumor response and tumor-peptide vaccination” (H. LEE MOFFITT CANCER CENTER AND RESEARCH INSTITUTE, INC., priority 2014, dated 2021).

Tests used:
[1] = system: Fc-muMCL1 lymphoma cells; assay: Fc-muMCL1 lymphoma tumor growth in SCID mice; assay type: in vivo; settings: SCID (lympho-deficient) mice, 35 mg/kg daily for 16 days vs vehicle
Protocol: (§1) FIGS. 3A and 3B. […] (FIG. 3A) C57BL/6 or (FIG. 3B) SCID mice were subcutaneous injected with 3×10^6 Fc-muMCL1 lymphoma cells. After tumor appearance, six mice were treated daily with 35 mg/kg of Tubastatin A and four mice received vehicle control, for 16 days. […] To further evaluate whether these in vivo responses were dependent on T-cells, WT or lympho-deficient, lymphoma-bearing mice were treated with an HDAC6 inhibitor. HDAC6 inhibition led to reduced tumor burden in WT mice, which was absent in lympho-deficient mice, highlighting the importance of lymphocytes in the aforementioned in vivo results. Thus, the role of HDAC6 in regulating immune cells during anti-tumor response appears to be more important than the previously reported role as a regulator of Treg function.

[2] = system: Fc-muMCL1 lymphoma cells; assay: Fc-muMCL1 lymphoma tumor growth in C57BL/6 mice; assay type: in vivo; settings: C57BL/6 (WT) mice, 35 mg/kg daily for 16 days vs vehicle
Protocol: as §1

SMILES: CN1CCc2c(c3ccccc3n2Cc2ccc(C(=O)NO)cc2)C1 [Tubastatin A]
- anti-tumor response / tumor burden [1]: dependent on an intact immune system
- anti-tumor response / tumor burden [2]: Enhanced anti-tumor response
